# Experimental data as given in patent US9079896B2, “Urotensin II receptor antagonists” (Janssen Pharmaceutica NV, priority 2008, dated 2015).
# Legend:
# [1] = system: isolated arterial rings of rats and humans; settings: read-out: EC50 (concentration-dependent contraction); cited from earlier work
# rU-II = biological target: T1, rU-II (Rattus norvegicus, UniProt P49684); settings: agonist cyclic peptide used in the assay; cited from earlier work
# T1 sequence (P49684 1-386): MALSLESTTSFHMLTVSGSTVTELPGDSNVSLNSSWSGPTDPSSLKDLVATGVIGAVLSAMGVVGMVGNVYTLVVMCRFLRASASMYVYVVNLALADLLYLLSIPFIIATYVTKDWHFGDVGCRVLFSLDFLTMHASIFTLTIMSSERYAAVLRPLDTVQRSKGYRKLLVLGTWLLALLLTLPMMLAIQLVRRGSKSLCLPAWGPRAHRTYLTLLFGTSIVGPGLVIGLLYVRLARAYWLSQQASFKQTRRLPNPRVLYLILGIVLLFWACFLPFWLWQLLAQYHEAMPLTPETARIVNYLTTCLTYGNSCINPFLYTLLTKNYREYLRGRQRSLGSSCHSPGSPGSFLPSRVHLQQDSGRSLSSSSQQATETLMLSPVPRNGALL
# [2] = biological target: T2, rat GPR14 (U-II receptor) (Rattus norvegicus, UniProt P49684); settings: agonist cyclic peptide used in the assay; read-out: FLIPR EC50; cited from earlier work
# T2 construct: expressed in transfected cells
# T2 sequence (P49684 1-386): T1 sequence (P49684 1-386)
# [3] = biological target: T2, rat GPR14 (U-II receptor); assay: Rat UII Calcium Mobilization FLIPR Assay; assay type: cell-based; settings: antagonist activity after 5 min incubation vs agonist (Ac)-CFWK(2-NaI)C-NH2 at 1 nM; CHO cells transfected with rat GPR14
# From the text: A calcium mobilization assay based on a Fluorescence Imaging Plate
# Res. Commun. 1995, 209, 752-759. A. Marchese, M. Heiber, T. Nguyen, H. H. Heng, V. R. Saldivia, R. Cheng, P. M. Murphy, L. C. Tsui, X. Shi, P. Gregor, Genomics 1995, 29, 335-344.).
# To derive these cells, the complete coding sequence of rat U-II (Genbank Accession No. U32673) was amplified by nested PCR from rat heart marathon-Ready cDNA. […] The PCR products were cloned into pcDNA3 (Invitrogen) digested with EcoR I and Xba I. Clones containing rat U-II receptor were verified by complete sequencing of the U-II receptor insert to ensure a lack of PCR-introduced errors. The constructed vector was transfected into CHO cells by using lipofectamine (GIBCO BRL). CHO cells with high expression of rat U-II receptor were selected and established as stable cell lines by using G418. CHO cells were seeded at 25,000 cells per well into 96-well, black-wall, clear-bottom microtiter plates 24 h before assay. Cells in culture media (DMEM/F12 containing 15 mM HEPES, L-glutamine, pyridoxine hydrochloride; 10% fetal bovine serum; 1 mg/mL G418 sulfate; antibiotic-antimycotic; pH 7.4) were loaded with proprietary dye, from the FLIPR Calcium Assay Kit (Molecular Devices), prepared in assay buffer (Hanks Balanced Salts Solution, 20 mM HEPES, 0.1% BSA, 2.5 mM probenecid, pH 7.4), and incubated for 1 h at 37° C. […]
# [4] = biological target: T3, UT receptors in Human Skeletal Muscle Myoblasts (HSMM) (Homo sapiens, UniProt Q9UKP6); settings: read-out: Human UII Average Binding Ki; 0.150 nM (125I)-U-II, intact HSMM, 3 h, 25° C.
# T3 sequence (Q9UKP6 1-389): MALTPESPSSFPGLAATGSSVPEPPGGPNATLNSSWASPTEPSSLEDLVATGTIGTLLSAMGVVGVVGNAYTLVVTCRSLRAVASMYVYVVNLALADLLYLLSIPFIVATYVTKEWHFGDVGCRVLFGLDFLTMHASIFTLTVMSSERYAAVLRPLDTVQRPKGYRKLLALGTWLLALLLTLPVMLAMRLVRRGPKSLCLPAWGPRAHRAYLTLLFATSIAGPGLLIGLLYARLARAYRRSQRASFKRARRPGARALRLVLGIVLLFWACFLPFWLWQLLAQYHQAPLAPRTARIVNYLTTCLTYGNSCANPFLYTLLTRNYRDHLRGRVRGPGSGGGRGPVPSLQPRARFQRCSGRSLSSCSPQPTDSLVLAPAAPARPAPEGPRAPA
# [5] = biological target: T4, Human UII (6D9 human rhabdomyosarcoma cells) (Homo sapiens, UniProt Q9UKP6); assay: Human UII Calcium Mobilization Assay; assay type: cell-based; settings: FLIPR TETRA, column head prints Ki (μM), read-out: Human UII Ca+ Mobilization Average IC50
# T4 construct: 6D9: isolated by dilution subcloning of RMS13 cells; host or cells: 6D9 human rhabdomyosarcoma cells (subclone of RMS13)
# T4 sequence (Q9UKP6 1-389): T3 sequence (Q9UKP6 1-389)
# Protocol: 25 μL of dye solution was added to the wells such that the final liquid volume before agonist/antagonist treatment was 50 μL for all assays. The cell plates were incubated at 37° C. for 45 minutes and the fluorescence intensity was measured on a Fluorometric Imaging Plate Reader (FLIPR^TETRA, Molecular Devices, Sunnyvale, Calif.).
# Antagonist and agonist U-II were added at room temperature on the FLIPR^TETRA, and the fluorescence intensity before and after addition was measured over a period of 4 minutes. The dye incubation time and temperature as well as instrument setting was adjusted so the fluorescence intensity could be compared between plates on the same day. EC50 and IC50 were analyzed using GraphPad Prism 4 software (GraphPad Software Inc., San Diego, Calif.).
# For assays, U-II agonist, U-II antagonist and urantide were diluted with HBSS/HEPES containing 0.01% FBS.
# Test compounds were dissolved in DMSO at 10 mM concentration. The serial dilutions were carried out in HBSS/HEPES. The highest final DMSO concentration was at 0.1%.
compound,measurement,setting,value
"AGTAD-cyclo(CFWKYC)-V [Goby U-II, urotensin-II isolated from the urophysis of the goby fish, a 12-mer]",EC50,[1],< 1 nM
(Ac)-CFWK(2-NaI)C—NH2,Ki,rU-II,0.12 ± 0.05 nM
same,EC50,[2],0.54 ± 0.2 nM
"CCN1CCN(c2cccc3c2[C@H]2CCCC[C@H](c4ccc(OC)c(OC)c4)N2C3=O)CC1 [Compound 2, (R,R)-7-(3,4-Dimethoxy-phenyl)-1-(4-ethyl-piperazin-1-yl)-7,8,9,10,11,11a-hexahydro-azepino[2,1-a]isoindol-5-one]",Ki,[3],34 nM
"CCN1CCN(c2cccc3c2[C@H]2CCC[C@H](c4ccc(OC)c(OC)c4)N2C3=O)CC1 [Compound 1, (R,R)-4-(3,4-Dimethoxy-phenyl)-10-(4-ethyl-piperazin-1-yl)-1,3,4,10b-tetrahydro-2H-pyrido[2,1-a]isoindol-6-one]",Ki,[4],64 nM
same,Ki,[3],6 nM
same,IC50,[5],0.34 µM
